Assay results reported in patent US4937184A, “N-demethylefrotomycin” (Pfizer Inc., priority 1989, dated 1990).
≈ marks a conversion by molar mass, not a printed value.

Columns and labels:
[1] = test system: Acto. pyog.; assay: In vitro MIC in brain heart infusion (BHI) broth, Acto. pyog.; format: cell-based; settings: 24 h
Excerpt: (§1) Generally twelve 2 fold dilutions of the test compound are employed, with initial concentration of the test drug being in the range of 50 to 200 mcg./ml. The susceptibility (MIC) of the test organism is accepted as the lowest concentration of compound capable of producing complete inhibition of growth as judged by the naked eye.

[2] = test system: Hemoph. pleur.; assay: In vitro MIC in brain heart infusion (BHI) broth, Hemoph. pleur.; format: cell-based; settings: 24 h
Excerpt: as §1

[3] = test system: E. coli; assay: In vitro MIC in brain heart infusion (BHI) broth, E. coli; format: cell-based; settings: Escherichia coli
Excerpt: as §1

[4] = test system: Past. mult; assay: In vitro MIC in brain heart infusion (BHI) broth, Past. mult; format: cell-based; settings: 48 h
Excerpt: as §1

[5] = test system: Past. haem. 010; assay: Mouse protection test, i.p. infection with multilethal amounts of Past. haem. 010; format: in vivo, mice; settings: subcutaneous, infected i.p. with multilethal amounts of Past. haem. 010
Method: Additionally, compound (I) is tested in vivo by the well-known mouse protection test, or by a microbiological (bioassay) determination of serum levels in a variety of mammals (e.g., mouse, rat, dog). For example, at subcutaneous doses of either 100 mg./kg. or 25 mg./kg., there was survival of 5/5 mice infected i.p. with multilethal amounts of Past. haem. 010.

[6] = test system: Lact. acidoph.; assay: In vitro MIC in brain heart infusion (BHI) broth, Lact. acidoph.; format: cell-based; settings: 24 h, strain 001, replicate Day 1
Excerpt: as §1

[7] = test system: Past. haem.; assay: In vitro MIC in brain heart infusion (BHI) broth, Past. haem.; format: cell-based
Excerpt: as §1

SMILES: CC=CC=CC1OC(O)(C(CC)C(=O)NCC=CC=C(C)C(OC)C(C)C2OC(C=CC=CC=C(C)C(=O)c3c(O)cc[nH]c3=O)C(O)C2O)C(O)C(OC2OC(C)C(OC3OC(C)C(OC)C(O)C3OC)C(OC)C2O)C1(C)C (stereo not shown) [N-Demethylefrotomycin, N-demethylefrotomycin]
- MIC ([1]; strain 002, replicate Day 1): 12.5 µg/mL (≈ 11 µM)
- MIC ([1]; strain 008, replicate Day 1): 12.5 µg/mL (≈ 11 µM)
- MIC ([2]; strain 004, replicate Day 1): 12.5 µg/mL (≈ 11 µM)
- MIC ([2]; strain 005, replicate Day 1): 12.5 µg/mL (≈ 11 µM)
- MIC ([3]; 24 h, strain 124, replicate Day 1): > 100 µg/mL
- MIC ([3]; 48 h, strain 124, replicate Day 2): > 100 µg/mL
- MIC [4]: 12.5 µg/mL (≈ 11 µM)
- survival ([5]; 25 mg./kg.): 5/5
- survival ([5]; 100 mg./kg.): 5/5
- MIC [6]: 12.5 µg/mL (≈ 11 µM)
- MIC ([7]; 24 h): 12.5 µg/mL (≈ 11 µM)
- MIC ([7]; 48 h): 12.5 µg/mL (≈ 11 µM)
- MIC ([7]; strain 046, replicate Day 2, BHI broth): 12.5 µg/mL (≈ 11 µM)
